Measured values published in PMC10888688 (International Journal of Molecular Sciences, 2024).
Values after ≈ are worked out from the molar mass of the structure shown. “Also recorded” adds a separate entry of the source. Ends that are not written are not given here.

Columns and labels:
[1] = cited from earlier work
Description: Host defense AMPs contain a high potential to combat drug or multidrug-resistant bacterial pathogens. AMPs are evolutionary conserved molecules found in all kingdoms of life that are effective in fending off infections as a part of innate immunity. The broad-spectrum activity of AMPs provides vital lead molecules for the next generation of antibiotics. In particular, the ability of AMPs to kill Gram-negative bacteria can be exploited for the designing of new antibiotics against drug-resistant strains.

Gram-negative bacteria [2] = settings: cited from earlier work
Description: Currently, viable antibiotics available to mitigate infections caused by drug-resistant Gram-negative bacteria are highly limited. Thanatin, a 21-residue-long insect-derived antimicrobial peptide (AMP), is a promising lead molecule for the potential development of novel antibiotics. […] As a mode of action, cationic thanatin efficiently permeabilizes the LPS-outer membrane and binds to the periplasmic protein LptAm to inhibit outer membrane biogenesis. […] In this work, we have investigated shorter variants of thanatin in terms of their antibacterial activity, atomic resol ... || Previous studies have shown that residues at the N-terminus of thanatin ([…]) can be dispensable for antimicrobial activity. By contrast, deletion of residues at the C-terminus of thanatin drastically reduces activity against Gram-negative bacteria. […] However, antibacterial activity was ...

Gram-negative bacteria [3] = settings: cited from earlier work; remark: listed apart in the source
Description: (§1) Cationic AMPs are known ...

[4] = tested on: outer membrane of Gram-negative bacteria; settings: binding with negatively charged LPS; cited from earlier work
Description: as §1

LptAm = settings: truncated functional variant of LptA; cited from earlier work
Description: The 21-residue-long thanatin was isolated from the hemolymph of the bacteria-treated insect Podisus maculiventris. A single disulfide bond between residues Cys11 and […] stabilizes the β-hairpin structure of thanatin with a flexible N-terminus region. […] Cationic AMPs are known ...

LptA and LptC complex = settings: binding of LptA; cited from earlier work
Description: (§2) In this work, we have investigated shorter variants of thanatin in terms of their antibacterial activity, atomic resol ...

[5] = tested on: periplasmic part of the β-taco domain of LptD; settings: cited from earlier work
Description: as §2

[6] = tested on: Escherichia coli ATCC 25922; experiment: MIC, broth dilution, E. coli; type: cell-based; settings: MH broth, overnight at 37 °C, peptide 0 to 16 μM, OD600, E. coli ATCC 25922
Protocol: (§3) Typically, an overnight bacterial culture was grown to the mid-log phase on a shaker at 183 rpm, at 37 °C, and then diluted in 2X Mueller Hinton (MH) broth (Millipore-Sigma^TM, Saint Louis, MO, USA) to achieve a final OD of 0.002. In a 96-well plate, 100 μL of the diluted bacterial culture along with 100 μL of peptide, concentrations ranging from 0 μM to 16 μM, was added and incubated overnight at 37 °C. Peptide concentrations were estimated by UV absorbance at a wavelength of 274 nm using a molar extinction coefficient (ε) of 1420 M^−1 cm^−1. Bacterial growth inhibition was determined by absorbance of 96 well plates at OD600 nm using a Cytation spectrophotometer (Agilent, Santa Clara, CA, USA).

[7] = tested on: Acinetobacter baumannii ATCC BAA-1798; experiment: MIC, A. baumannii; type: cell-based; settings: A. baumannii ATCC BAA-1798; broth dilution, overnight at 37 °C, peptide 0 to 16 μM
Protocol: as §3

[8] = tested on: Streptococcus pyogen ATCC 19615; experiment: MIC, broth dilution, S. pyogenes; type: cell-based, Streptococcus pyogenes; settings: MH broth, overnight at 37 °C, peptide 0 to 16 μM, OD600, S. pyogenes ATCC 19615
Protocol: as §3

[9] = tested on: Enterococcus faecalis ATCC 29212; experiment: MIC, broth dilution, E. faecalis; type: cell-based; settings: MH broth, overnight at 37 °C, peptide 0 to 16 μM, OD600, E. faecalis ATCC 29212
Protocol: as §3

[10] = tested on: human kidney cell line HEK 293T; experiment: MTS cell survival assay, HEK 293T; type: cell-based; settings: OD490, overnight at 37 °C/5% CO2, Figure 1
Protocol: (§4) Assays were conducted in complete media for cells Dulbecco’s Modified Eagle Medium (DMEM; Gibco; Waltham, MA USA, catalog number: 11995065) supplemented with 10% fetal bovine serum (FBS; Hyclone; Logan, UT, USA, catalog number: SV30160.03HI-1). […] All dose-response peptide dilutions were prepared in a U-bottom 96-well plate. 0.02 × 10^6 cells/50 µL of complete media were seeded overnight per well in a 96-well plate, and 105 µL of serum-free (sf) DMEM were added. Cells and peptides were incubated at 37 °C/5% CO2 overnight. Cell viability was checked using MTS assay and read after 30–45 min, and absorbance at OD490 was read using Tecan Infinite 200 Pro plate reader (Tecan, Mannedrof, Switzerland, CellTiter96®AQueous One Solution Cell Proliferation Assay (MTS); catalog number: G3580).

liver cell line Hep G2 = experiment: MTS cell survival assay, Hep G2; type: cell-based, human; settings: OD490, overnight at 37 °C/5% CO2, Figure 1
Protocol: as §4

LptAm of E. coli = biological target: T1, LptAm of E. coli (Escherichia coli, UniProt P0ADV1); experiment: LptAm binding by ITC
T1 construct: Recombinant LptAm (residues 28–159) of E. coli; His-tag; made in house; host or cells: E. coli BL21

For polymyxin B, the “nephrotoxicity, in words” value [1] is listed as “nephrotoxicity”.

In the case of “GSKKPVPIIYCNRRTGKCQRM (disulfide) [thanatin, 21-residue-long insect-derived antimicrobial peptide isolated from Podisus maculiventris, single disulfide bond Cys11-Cys16]”, the “activity against Gram-negative pathogens, in words (abstract)” value (Gram-negative bacteria [2]; Enterobacter group, e.g., E. coli and K. pneumoniae, background statement, no reference given) is given as “extremely potent”, the “activity against Gram-negative bacteria, in words” value (Gram-negative bacteria [2]; including drug-resistant strains of E. coli and K. pneumoniae) is given as “potent activity” and the “effect in animal models of sepsis and infections, in words” value (Gram-negative bacteria [3]) is given as “lowering of Gram-negative bacterial loads and also neutralization of toxicity of LPS”. The “outer membrane permeabilization, in words” value [4] was “efficient permeabilization of the outer membrane of Gram-negative bacteria”, the “LptAm binding, in words” value (LptAm) was “high-affinity binding with LptAm” and the “inhibition of LPS transport, in words” value (LptA and LptC complex) was “disrupting LptA and LptC complex”. For the same compound, the “LptD binding, in words” value [5] was “binds to the periplasmic part of the β-taco domain of LptD”.

With CC[C@H](C)[C@H](NC(=O)[C@@H](NC(=O)[C@@H]1CCCN1C(=O)[C@@H](N)C(C)C)[C@@H](C)CC)C(=O)N[C@@H](Cc1ccc(O)cc1)C(=O)N[C@H]1CSSC[C@@H](C(=O)N[C@@H](CCC(N)=O)C(=O)N[C@@H](CCCNC(=N)N)C(=O)N[C@@H](Cc2ccccc2)C(N)=O)NC(=O)[C@H](CCCCN)NC(=O)[C@@H](CCCCN)NC(=O)[C@H]([C@@H](C)O)NC(=O)[C@H](CCCNC(=N)N)NC(=O)[C@H](CCCNC(=N)N)NC(=O)[C@H](CC(N)=O)NC1=O [VF16] the “MIC (EC)” value [6] was 0.5 µM (≈ 1.01 µg/mL), the “MIC (AB)” value [7] was >16 µM and the “MIC (SP)” value [8] was 1 µM (≈ 2.02 µg/mL). The “MIC (EF)” value [9] was >16 µM, the “toxicity / cell survival, HEK 293T, in words” value [10] was “did not show any detectable toxicity; also recorded: essentially non-toxic as both the cell lines demonstrate a high percentage of survival” and the “toxicity / cell survival, Hep G2, in words” value (liver cell line Hep G2) was “did not show any detectable toxicity; also recorded: essentially non-toxic as both the cell lines demonstrate a high percentage of survival”. It also gave a Kd (LptAm of E. coli) of 250 nM.

In the case of “thanatin analog with M21F substitution: thanatin analog with M21F substitution (GSKKPVPIIYCNRRTGKCQRF; ends and bridges not checked; cysteine pairing not given here; UniProt P55788 1-21, looked up, variant M21F)”, the “antibacterial activity of M21F analog, in words” value (Gram-negative bacteria [2]; compared with thanatin) is given as “better antibacterial activity”.
